# Source: patent US9029559B2, “Substituted 3-heteroaroylamino-propionic acid derivatives and their use as pharmaceuticals” (SANOFI, priority 2011, dated 2015)
# Where two headings read alike, the source gives them in different places.
# Molecular target: Recombinant human cathepsin A (Homo sapiens (Human), UniProt P10619)
# Test: Cathepsin A inhibitory activity (cleavage of Bodipy FL-labeled bradykinin, microfluidic capillary electrophoresis)
# Type: biochemical
# [1] = read-out: Activity (IC50, cathepsin A inhibitory activity)
# [2] = read-out: Activity [μM] (IC50, cathepsin A inhibitory activity)
# [3] = read-out: Activity (IC50, cathepsin A inhibition)
# [4] = read-out: Activity (Cathepsin A inhibitory activity, IC50)
# Procedure: Pharmacological Tests a) Cathepsin A Inhibitory Activity
# Briefly, cathepsin A was incubated at 10 μg/ml with cathepsin L at 1 μg/ml in activation buffer (25 mM 2-(morpholin-4-yl)-ethanesulfonic acid (MES), pH 6.0, containing 5 mM dithiothreitol (DTT)) for 15 min at 37° C.
# The activated cathepsin A was diluted in assay buffer (25 mM MES, pH 5.5, containing 5 mM DTT) and mixed with the test compound (dissolved in assay buffer containing (v/v) 3% DMSO) or, in the control experiments, with the vehicle in a multiple assay plate. After incubation for 15 min at room temperature, as substrate then bradykinin carrying an N-terminal ®Bodipy FL (4,4-difluoro-5,7-dimethyl-4-bora-3a,4a-diaza-s-indacene-3-propionyl) label (JPT Peptide Technologies GmbH; dissolved in assay buffer) was added to the mixture. […] After incubation for 15 min at room temperature the reaction was stopped by the addition of stop buffer (130 mM 2-(4-(2-hydroxy-ethyl)-piperazin-1-yl)-ethanesulfonic acid, pH 7.4, containing (v/v) 0.013% ®Triton X-100, 0.13% Coating Reagent 3 (Caliper Life Sciences), 6.5% DMSO and 20 μM ebelactone B (Sigma, #E0886)).
# Uncleaved substrate and product were then separated by a microfluidic capillary electrophoresis on a LabChip® 3000 Drug Discovery System (12-Sipper-Chip; Caliper Life Sciences) and quantified by determination of the respective peak areas. Substrate turnover was calculated by dividing product peak area by the sum of substrate and product peak areas, and the enzyme activity and the inhibitory effect of the test compound thus quantified.
# Sequence of Recombinant human cathepsin A (P10619 29-326): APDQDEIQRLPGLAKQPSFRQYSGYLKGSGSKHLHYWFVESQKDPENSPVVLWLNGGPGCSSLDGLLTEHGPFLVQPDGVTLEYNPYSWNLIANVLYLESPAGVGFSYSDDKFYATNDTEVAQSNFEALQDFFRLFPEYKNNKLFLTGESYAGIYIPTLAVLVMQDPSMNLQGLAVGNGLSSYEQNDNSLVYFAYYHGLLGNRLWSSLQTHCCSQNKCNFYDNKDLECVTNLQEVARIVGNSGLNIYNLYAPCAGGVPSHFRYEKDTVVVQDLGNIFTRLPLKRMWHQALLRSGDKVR
# Sequence of Recombinant human cathepsin A (P10619 327-480): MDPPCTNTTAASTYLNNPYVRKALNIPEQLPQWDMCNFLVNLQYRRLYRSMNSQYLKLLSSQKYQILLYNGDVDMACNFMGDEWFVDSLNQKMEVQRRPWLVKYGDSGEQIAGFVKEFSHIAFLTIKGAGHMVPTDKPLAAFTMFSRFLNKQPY
SMILES,IC50 [1] [µM],also measured
COc1ccc(C(=O)N[C@@H](CC(=O)O)c2ccccc2F)nc1-c1ccc(F)c(C)c1 [compound 292],4.13,
COc1ccc(C(=O)N[C@@H](CC(=O)O)c2ccc(C)cc2)nc1-c1ccc(F)cc1 [compound 185],,IC50 [2]: 1.29 µM
COc1cc(OC)nc(C(=O)N[C@@H](CC(=O)O)c2ccccc2C)n1 [compound 30],4.21,
"COc1ccc(C(=O)N[C@@H](CC(=O)O)c2ccc(C)cc2)nc1-c1ccc(Cl)cc1 [compound 186, (S)-3-{[6-(4-Chloro-phenyl)-5-methoxy-pyridine-2-carbonyl]-amino}-3-p-tolyl-propionic acid]",,IC50 [2]: 3.56 µM
COc1ccc(C(=O)N[C@@H](CC(=O)O)c2ccccc2F)nc1-c1cccc(C#N)c1 [compound 273],9.57,
COc1ccc(C(=O)N[C@@H](CC(=O)O)c2ccccc2Cl)nc1-c1c(C)nn(C)c1C [compound 486],4.95,
Cc1ccc([C@H](CC(=O)O)NC(=O)c2cccc(-c3ccccc3Cl)n2)cc1 [compound 580],,IC50 [3]: 15.6 µM
COc1ccc(C(=O)N[C@@H](CC(=O)O)c2ccccc2Cl)nc1-c1ccc(C(F)(F)F)cc1F [compound 214],7.02,
COc1ccc(C(=O)N[C@@H](CC(=O)O)c2ccccc2Cl)nc1-c1ccc(F)c(Cl)c1 [compound 332],,IC50 [2]: 5.24 µM
COc1ccc(-c2cccc(C(=O)NC(CC(=O)O)c3ccccc3Cl)n2)cc1 (centres unmarked) [compound 595],,IC50 [3]: 1.42 µM
COc1ccc(C(=O)N[C@@H](CC(=O)O)c2ccccc2Cl)nc1-c1cccc(-c2nnc(C)o2)c1 [compound 484],6.69,
COc1ccc(C(C)(C)C)cc1-c1nc(C(=O)N[C@@H](CC(=O)O)c2ccccc2Cl)ccc1OC [compound 475],> 10,
O=C(O)CC(NC(=O)c1cncc(-c2ccccc2)c1)c1ccccc1Cl (centres unmarked) [compound 566],,IC50 [3]: 11.7 µM
COc1cccnc1C(=O)N[C@@H](CC(=O)O)c1ccccc1C [compound 9],7.25,
COc1ccc(C(=O)N[C@@H](CC(=O)O)c2ccc(C)cc2)nc1-c1ccc2ccccc2c1 [compound 195],,IC50 [2]: 8.83 µM
Cc1ccc(-c2cccc(C(=O)N[C@@H](CC(=O)O)c3ccccc3C)n2)cc1C [compound 153],,IC50 [2]: 1.19 µM
Cc1ccccc1[C@H](CC(=O)O)NC(=O)c1cccc(-c2cccc(-c3ccccc3)c2)n1 [compound 147],,IC50 [2]: 3.16 µM
COc1ccc(C(=O)N[C@@H](CC(=O)O)c2ccc(C)cc2)nc1-c1ccc(C)o1 [compound 237],3.54,
Cc1ccccc1[C@H](CC(=O)O)NC(=O)c1cccc(-c2ccc(F)c(F)c2)n1 [compound 151],,IC50 [2]: 1.18 µM
Cc1ccccc1[C@H](CC(=O)O)NC(=O)c1cccc(-c2c(C)noc2C)n1 [compound 159],,IC50 [2]: 14.4 µM
Cc1ccccc1[C@H](CC(=O)O)NC(=O)c1ccnc(-c2ccccc2F)c1 [compound 97],2.71,
CC(C)Cc1cc(C(=O)NC(CC(=O)O)c2ccccc2Cl)nc(N)n1 (centres unmarked) [compound 557],,IC50 [3]: 14 µM
COc1ncc(C(=O)N[C@@H](CC(=O)O)c2ccccc2C)cc1-c1ccccc1 [compound 405],3.9,
O=C(O)CC(NC(=O)c1ncccc1F)c1ccccc1Cl (centres unmarked) [compound 530],,IC50 [3]: 5.27 µM
COc1ccc([C@H](CC(=O)O)NC(=O)c2cccc(-c3ccccc3Cl)n2)cc1 [compound 599],,IC50 [4]: 2.83 µM
O=C(O)CC(NC(=O)c1ccc(Oc2ccccc2)nc1)c1ccccc1Cl (centres unmarked) [compound 585],,IC50 [3]: 8.67 µM

SMILES,IC50 [1] [µM],also measured
COc1ccc(C(=O)N[C@@H](CC(=O)O)c2ccccc2F)nc1-c1cc(C)ccc1Cl [compound 323],,IC50 [2]: 2.31 µM
COc1ncc(C(=O)N[C@@H](CC(=O)O)c2ccccc2C)cc1-c1ccc(C)cc1 [compound 410],5.38,
COc1cc(F)ccc1-c1cncc(C(=O)N[C@@H](CC(=O)O)c2ccccc2C)c1 [compound 85],7.83,
COc1ccc(C(=O)N[C@@H](CC(=O)O)c2ccc(C)cc2)nc1-c1ccc(C)c(F)c1 [compound 223],1.29,
Cc1cc(C)nc(C(=O)N[C@@H](CC(=O)O)c2ccccc2C)c1 [compound 51],1.81,
O=C(O)CC(NC(=O)c1cc(-c2ccccc2)ccn1)c1ccccc1Cl (centres unmarked) [compound 565],,IC50 [3]: 4.07 µM
COc1ccc(C(=O)N[C@@H](CC(=O)O)c2ccccc2Cl)nc1-c1cccc(Cl)c1 [compound 340],,IC50 [2]: 1.51 µM
COc1ncc(C(=O)N[C@@H](CC(=O)O)c2ccccc2C)cc1-c1ccc(F)cc1 [compound 407],4.39,
Cc1ccccc1[C@H](CC(=O)O)NC(=O)c1ccnc(-c2cccc(Cl)c2Cl)c1 [compound 123],,IC50 [2]: 3.7 µM
COc1ccc(C(=O)N[C@@H](CC(=O)O)c2ccccc2C)nc1-c1ccc(C)c(F)c1 [compound 370],,IC50 [2]: 1.58 µM
COc1ccc(C(=O)N[C@@H](CC(=O)O)c2ccccc2Cl)nc1-c1ccc(F)c(F)c1 [compound 440],1.96,
COc1ccc(-c2nc(C(=O)N[C@@H](CC(=O)O)c3ccccc3F)ccc2OC)cc1 [compound 259],5.01,
Cc1ccccc1[C@H](CC(=O)O)NC(=O)c1cccc(-c2ccc(C(=O)N(C)C)c(Cl)c2)n1 [compound 174],,IC50 [2]: 1.59 µM
COc1ccc(F)c(-c2nc(C(=O)N[C@@H](CC(=O)O)c3ccc(C)cc3)ccc2OC)c1 [compound 239],1.16,
COc1ccc(C(=O)N[C@@H](CC(=O)O)c2ccccc2Cl)nc1-c1cccnc1 [compound 444],10.1,
COc1cc(Cl)ccc1-c1nc(C(=O)N[C@@H](CC(=O)O)c2ccc(C)cc2)ccc1OC [compound 232],2.33,
COc1ccc(C(=O)N[C@@H](CC(=O)O)c2ccc(C)cc2)nc1-c1ccccc1C(=O)N(C)C [compound 228],3.96,
COc1ccc(C(=O)N[C@@H](CC(=O)O)c2ccccc2Cl)nc1-c1ccc(C)c(F)c1 [compound 449],2.02,
COc1ncc(C(=O)N[C@@H](CC(=O)O)c2ccccc2Cl)cc1-c1cccc(F)c1 [compound 341],,IC50 [2]: 9.86 µM
Cc1cc(F)ccc1-c1cncc(C(=O)N[C@@H](CC(=O)O)c2ccccc2C)c1 [compound 82],3.08,
Cc1ccccc1[C@H](CC(=O)O)NC(=O)c1cccc(-c2ccc(F)cc2)n1 [compound 135],,IC50 [2]: 1.18 µM
COc1ccc(C(=O)N[C@@H](CC(=O)O)c2ccccc2C)nc1-c1ccccc1C(=O)N(C)C [compound 374],,IC50 [2]: 2.48 µM
COc1ccc(C(=O)N[C@@H](CC(=O)O)c2ccc(C)cc2)nc1-c1cccc(C(F)(F)F)c1 [compound 181],,IC50 [2]: 5 µM
COc1ccc(C(=O)N[C@@H](CC(=O)O)c2ccc(C)cc2)nc1-c1ccc(Cl)c(F)c1 [compound 246],4.48,
O=C(O)C[C@H](NC(=O)c1cccc(-c2ccccc2Cl)n1)c1ccccc1 [compound 567],,IC50 [3]: 2.18 µM
COc1ccc(C(=O)N[C@@H](CC(=O)O)c2ccccc2Cl)nc1-c1ccncc1 [compound 443],8.04,

SMILES,IC50 [1] [µM],also measured
COc1ccc(C(=O)N[C@@H](CC(=O)O)c2ccccc2F)nc1-c1ccc(Cl)c(F)c1 [compound 313],,IC50 [2]: 3.55 µM
COc1ncc(C(=O)N[C@@H](CC(=O)O)c2ccccc2C)cc1-c1ccc(Cl)cc1 [compound 408],5.73,
COc1ccc(C(=O)N[C@@H](CC(=O)O)c2ccc(C)cc2)nc1-c1cc(C(F)(F)F)ccc1F [compound 236],3.57,
Cc1ccccc1[C@H](CC(=O)O)NC(=O)c1cc(N2CCOCC2)ccn1 [compound 50],7.73,
O=C(O)C[C@H](NC(=O)c1cccc(-c2ccccc2F)n1)c1ccc(C(F)(F)F)cc1 [compound 608],,IC50 [4]: 6.27 µM
COc1ccc(C(=O)N[C@@H](CC(=O)O)c2ccccc2F)nc1-c1cc(F)cc(F)c1 [compound 279],3.85,
COc1ccc(C(=O)N[C@@H](CC(=O)O)c2ccccc2F)nc1-c1ccc(C)cc1C [compound 291],4.02,
COc1ccc(C(=O)N[C@@H](CC(=O)O)c2ccc(C)cc2)nc1-c1ccc(C(C)=O)s1 [compound 210],,IC50 [2]: 7.52 µM
COc1ccc(C(=O)N[C@@H](CC(=O)O)c2ccccc2C)nc1-c1cc(C)cc(Cl)c1 [compound 378],,IC50 [2]: 7.49 µM
COc1ccc(C(=O)N[C@@H](CC(=O)O)c2ccccc2Cl)nc1-c1ccc(C#N)cc1F [compound 494],,IC50 [3]: 11.4 µM
O=C(O)CC(NC(=O)c1ccc2nc[nH]c2n1)c1ccccc1Cl (centres unmarked) [compound 542],,IC50 [3]: 10.8 µM
COc1ccc(C(=O)N[C@@H](CC(=O)O)c2ccc(C)cc2)nc1-c1ccncc1 [compound 215],9.66,
COc1ccc(C(=O)N[C@@H](CC(=O)O)c2ccccc2C)nc1-c1cc(C)cnc1Cl [compound 469],5.63,
COc1ccc(C(=O)N[C@@H](CC(=O)O)c2ccc(C)cc2)nc1-c1cccc(-c2ccccc2)c1 [compound 204],,IC50 [2]: 1.4 µM
COc1ccc(C(=O)N[C@@H](CC(=O)O)c2ccc(C)cc2)nc1-c1cccc(-c2nnc(C)o2)c1 [compound 249],8.71,
COc1ccc(C(=O)N[C@@H](CC(=O)O)c2ccccc2Cl)nc1-c1ccc(Cl)c(F)c1 [compound 480],4.37,
COc1ccc(C(=O)N[C@@H](CC(=O)O)c2ccc(C)cc2)nc1-c1cc(F)cc(F)c1 [compound 207],,IC50 [2]: 2.65 µM
Cc1ccccc1[C@H](CC(=O)O)NC(=O)c1cncc(-c2ccccc2F)c1 [compound 69],1.4,
O=C(O)CC(NC(=O)c1cc(O)ccn1)c1ccccc1Cl (centres unmarked) [compound 529],,IC50 [3]: 5.12 µM
Cc1cccc(C(=O)NC(CC(=O)O)c2ccccc2Cl)n1 (centres unmarked) [compound 527],,IC50 [3]: 4.96 µM
O=C(O)CC(NC(=O)c1ccc2cnccc2n1)c1ccccc1Cl (centres unmarked) [compound 544],,IC50 [3]: 11.1 µM
COc1ccc(C(=O)N[C@@H](CC(=O)O)c2ccccc2F)nc1-c1ccccc1C(=O)N(C)C [compound 295],4.51,
COc1ccc(C(=O)N[C@@H](CC(=O)O)c2ccccc2F)nc1-c1cc(C(F)(F)F)ccc1F [compound 304],3.99,
COc1ccc(C(=O)N[C@@H](CC(=O)O)c2ccccc2C)nc1-c1cccc(C2(O)COC2)c1 [compound 384],,IC50 [2]: 2.39 µM
COc1ccc(C(=O)N[C@@H](CC(=O)O)c2ccccc2F)nc1-c1ccc(C)cc1 [compound 260],5.18,
